Assay results reported in ChEMBL document CHEMBL1143213, “Anticancer activity of (1,2,3,5-tetrahydro-4,1-benzoxazepine-3-yl)-pyrimidines and -purines against the MCF-7 cell line: Preliminary cDNA microarray studies” (Bioorg Med Chem Lett, 2008).
The source made the active and inactive calls. The rule behind the calls is not given here.

Test system: MCF7
Test: Antiproliferative activity against human MCF7 cells
Format: functional, cell-based
Conditions: Homo sapiens, MCF7

IC50 [µM]	SMILES
1.25	Ic1ncnc2c1ncn2C1COc2ccccc2CO1 (stereo unspecified)
1.25	Clc1ncnc2c1ncn2C1CSc2ccccc2CO1 (stereo unspecified)
1.25	O=S1(=O)CC(n2cnc3c(Cl)ncnc32)OCc2ccccc21 (stereo unspecified)
39.8	O=c1ccn(C2CN(S(=O)(=O)c3ccc([N+](=O)[O-])cc3)c3ccccc3CO2)c(=O)[nH]1 (stereo unspecified)
50.9	O=c1cc[nH]c(=O)n1C1CN(S(=O)(=O)c2ccccc2[N+](=O)[O-])c2ccccc2CO1 (stereo unspecified)
19.7	O=c1[nH]c(=O)n(C2CN(S(=O)(=O)c3ccccc3[N+](=O)[O-])c3ccccc3CO2)cc1F (stereo unspecified)
19.7	O=[N+]([O-])c1ccccc1S(=O)(=O)N1CC(n2cnc3ncnc(O)c32)OCc2ccccc21 (stereo unspecified)
44.3	O=c1cc[nH]c(=O)n1C1CN(S(=O)(=O)c2ccc([N+](=O)[O-])cc2)c2ccccc2CO1 (stereo unspecified)
1.25	Clc1ncnc2c1ncn2C1COc2ccccc2CO1 (stereo unspecified)
22.6	O=c1[nH]cc(F)c(=O)n1C1CN(S(=O)(=O)c2ccccc2[N+](=O)[O-])c2ccccc2CO1 (stereo unspecified)
54.8	Nc1ccccc1S(=O)(=O)N1CC(n2cc(F)c(=O)[nH]c2=O)OCc2ccccc21 (stereo unspecified)
0.92	O=[N+]([O-])c1ccccc1S(=O)(=O)N1CC(n2cnc3ncnc(Cl)c32)OCc2ccccc21 (stereo unspecified)
> 100	O=c1[nH]c(=O)n(C2CNc3ccccc3CO2)cc1F (stereo unspecified)
2.59	O=[N+]([O-])c1ccccc1S(=O)(=O)N1CC(n2cnc3ncnc(Sc4ccccc4)c32)OCc2ccccc21 (stereo unspecified)
19.8	O=c1[nH]cc(F)c(=O)n1C1CN(S(=O)(=O)c2ccc([N+](=O)[O-])cc2)c2ccccc2CO1 (stereo unspecified)
0.86	O=[N+]([O-])c1ccc(S(=O)(=O)N2CC(n3cnc4ncnc(Sc5ccccc5)c43)OCc3ccccc32)cc1 (stereo unspecified)
19.3	O=c1[nH]c(=O)n(C2CN(S(=O)(=O)c3ccc([N+](=O)[O-])cc3)c3ccccc3CO2)cc1F (stereo unspecified)
48.9	c1ccc(Sc2ncnc3ncn(C4CNc5ccccc5CO4)c23)cc1 (stereo unspecified)
> 100	O=[N+]([O-])c1ccc(S(=O)(=O)N2CC(n3cnc4ncnc(O)c43)OCc3ccccc32)cc1 (stereo unspecified)
1.25	COc1ccc2c(c1)COC(n1cc(F)c(=O)[nH]c1=O)CO2 (stereo unspecified)
1.22	O=[N+]([O-])c1ccc(S(=O)(=O)N2CC(n3cnc4ncnc(Cl)c43)OCc3ccccc32)cc1 (stereo unspecified)
45.2	O=c1ccn(C2CN(S(=O)(=O)c3ccccc3[N+](=O)[O-])c3ccccc3CO2)c(=O)[nH]1 (stereo unspecified)
64.8	COC(CN(c1ccccc1CO)S(=O)(=O)c1ccccc1[N+](=O)[O-])n1ccc(=O)[nH]c1=O (stereo unspecified)
43.7	Nc1ccccc1S(=O)(=O)N1CC(n2c(=O)[nH]cc(F)c2=O)OCc2ccccc21 (stereo unspecified)

IC50 [µM]	SMILES
36	COC(CNc1ccccc1CO)n1cc(F)c(=O)[nH]c1=O (stereo unspecified)
1.25	Ic1ncnc2ncn(C3COc4ccccc4CO3)c12 (stereo unspecified)
55.2	COC(CN(c1ccccc1CO)S(=O)(=O)c1ccc([N+](=O)[O-])cc1)n1cc(F)c(=O)[nH]c1=O (stereo unspecified)
18.7	COC(CN(c1ccccc1CO)S(=O)(=O)c1ccc([N+](=O)[O-])cc1)n1cnc2c(Cl)ncnc21 (stereo unspecified)
1.25	Clc1ncnc2ncn(C3CSc4ccccc4CO3)c12 (stereo unspecified)
55.2	COC(CN(c1ccccc1CO)S(=O)(=O)c1ccc([N+](=O)[O-])cc1)n1c(=O)cc[nH]c1=O (stereo unspecified)
72.4	O=c1[nH]cc(F)c(=O)n1C1CNc2ccccc2CO1 (stereo unspecified)
1.25	FC(F)(F)c1ncnc2c1ncn2C1COc2ccccc2CO1 (stereo unspecified)
53.6	O=C(OCC1c2ccccc2-c2ccccc21)N1CC(n2cnc3ncnc(O)c32)OCc2ccccc21 (stereo unspecified)
2.73	O=[N+]([O-])c1ccc(S(=O)(=O)N2CC(n3cnc4c(Cl)ncnc43)OCc3ccccc32)cc1 (stereo unspecified)
14.4	Nc1ccc(S(=O)(=O)N2CC(n3cc(F)c(=O)[nH]c3=O)OCc3ccccc32)cc1 (stereo unspecified)
> 100	COC(CN(c1ccccc1CO)S(=O)(=O)c1ccccc1N)n1cc(F)c(=O)[nH]c1=O (stereo unspecified)
1.25	Clc1nc(Cl)c2ncn(C3COc4ccccc4CO3)c2n1 (stereo unspecified)
16.1	COC(CN(C(=O)c1ccccc1)c1ccccc1CO)n1cc(F)c(=O)[nH]c1=O (stereo unspecified)
1.25	O=c1ccn(C2COc3ccccc3CO2)c(=O)[nH]1 (stereo unspecified)
1.25	Clc1ncnc2ncn(C3COc4ccccc4CO3)c12 (stereo unspecified)
0.84	O=C(OCC1c2ccccc2-c2ccccc21)N1CC(n2cnc3ncnc(Cl)c32)OCc2ccccc21 (stereo unspecified)
2.1	O=[N+]([O-])c1ccccc1S(=O)(=O)N1CC(n2cnc3c(Cl)ncnc32)OCc2ccccc21 (stereo unspecified)
0.67	O=C(OCC1c2ccccc2-c2ccccc21)N1CC(n2cnc3c(Cl)ncnc32)OCc2ccccc21 (racemic)
91	COC(CN(c1ccccc1CO)S(=O)(=O)c1ccccc1[N+](=O)[O-])n1cc(F)c(=O)[nH]c1=O (stereo unspecified)
9.14	Nc1ccccc1S(=O)(=O)N1CC(n2cnc3ncnc(Cl)c32)OCc2ccccc21 (stereo unspecified)
45.8	COC(CN(c1ccccc1CO)S(=O)(=O)c1ccc([N+](=O)[O-])cc1)n1ccc(=O)[nH]c1=O (stereo unspecified)
1.25	Clc1nc(Cl)c2c(ncn2C2COc3ccccc3CO2)n1 (stereo unspecified)

Same assay, conditions: mcf7

IC50 [µM]	SMILES
11.3	COC(CN(c1ccccc1CO)S(=O)(=O)c1ccccc1[N+](=O)[O-])n1cnc2c(Cl)ncnc21 (stereo in doubt; 51)

Test system: MCF7
Test: Induction of GP132 gene expression in human MCF7 cells by microarray
Format: functional, cell-based
Conditions: not given

SMILES	Activity
O=C(OCC1c2ccccc2-c2ccccc21)N1CC(n2cnc3c(Cl)ncnc32)OCc2ccccc21 (racemic)	Active

Test system: MCF7
Test: Down regulation of RAC1 gene expression in human MCF7 cells by microarray
Format: functional, cell-based
Conditions: not given

SMILES	Activity
O=[N+]([O-])c1ccc(S(=O)(=O)N2CC(n3cnc4ncnc(Sc5ccccc5)c43)OCc3ccccc32)cc1 (stereo unspecified)	Active

Test system: MCF7
Test: Induction of ERN1 gene expression in human MCF7 cells by microarray
Format: functional, cell-based
Conditions: not given

SMILES	Activity
O=C(OCC1c2ccccc2-c2ccccc21)N1CC(n2cnc3c(Cl)ncnc32)OCc2ccccc21 (racemic)	Active
